Results: patent US8835644B2, “Broad spectrum benzothiophene-nitrothiazolide and other antimicrobials” (University of Virginia Patent Foundation, priority 2009, dated 2014)
In brackets after ≈: the same amount, converted by molar mass. Like-named read-outs stand apart in the source and are kept apart here.

How the values were obtained:
S. epidermidis biofilm = S. epidermidis biofilm assay (activity tables); format: cell-based, Staphylococcus epidermidis
Summary of the method: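 Overnight TSB cultures diluted to OD600 0.01 and grown static with compound (triplicate) at 37° C for 16 h; turbidity recorded for growth. Biofilm: washed wells ethanol-fixed, stained with 0.5% crystal violet, A570 read before and after 95% ethanol extraction; mean ± SD.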

[1] = tested on: AafA fimbriae of EAEC 042; assay: Fimbrial filaments by SDS-PAGE, immunoblot, immunofluorescence; format: cell-based, Escherichia coli; settings: EAEC 042, MinA-G, 20 μg/ml
Experimental: A simplified procedure for mechanical removal of fimbriae was modified from Dodd and Eisenstein (5). […] The cultures were spun down at 4,000 rpm for 5 min at 25° C. Pellets were resuspended in 2 ml PBS, vortexed 2× for 30 sec to shear off flagella and fimbriae, and then centrifuged at 8,000 rpm for 10 min to remove whole cells. The supernatants, containing fimbrial filaments, were transferred to new tubes, and 8 ml of acetone were added to precipitate proteins. Solutions were spun down again at 8,000 rpm for 10 min, and the acetone was decanted. The remaining protein pellets were resuspended in 50 μl PBS and 100 μl 3× loading buffer containing 2-mercaptoethanol.
To analyze the proteins contained in the biofilm, the flasks were rinsed with water to remove residual bacteria, and the biofilms were dissolved in 1-2 ml 1% SDS. 50 μl of each solution was combined with 100 μl 3× loading buffer in PCR tubes. All five samples were run in a NuPAGE 4-12% Bis-Tris gel at 120 V and stained with Coomassie brilliant blue or used directly for transfer of proteins to nitrocellulose.
Ponceau red stained nitrocellulose was used to visualize transferred proteins and immunoblotting protocols used in this study as described (14). […] The slides were washed 3× in PBS, dried and visualized with a Zeiss epi-fluorescence microscope.

[2] = tested on: EAEC JM221 (AAF/I fimbriae); assay: Hemagglutination of sheep erythrocytes, EAEC JM221; format: cell-based, Escherichia coli; settings: EAEC JM221 grown in MinA-G with 20 μg/ml NTZ; note: key: +++ = strong hemagglutination reaction; + weak; − no hemagglutination
Experimental: HA assays were performed in 96-well microplates as described in (1). Bacteria grown over night without shaking ([…]) were suspended in PBS and diluted to OD660 of […] was mixed with an equal volume of 3% (vol/vol) sheep erythrocyte suspension containing 1% mannose, except when type I fimbriae producing strains were assayed. In the latter, bacteria were grown statically in LB medium (with and without NTZ) for 48 h and HA was determined with guinea pig erythrocytes. HA reactions were incubated at 4° C. for […] HA was determined visually against controls receiving no NTZ. All assays were prepared in triplicate and repeated twice.

[3] = tested on: S. aureus and S. epidermidis strains; assay: MIC by microdilution in TSB, staphylococcal strains; format: cell-based, Staphylococcus epidermidis; settings: Staphylococcus aureus; staphylococcal strains incl. MRSA S. aureus, microdilution in TSB; read-out: MIC
Experimental: Minimal inhibitory concentration testing of NTZ was done in sterile round bottom 96 well microtiter polystyrene plates (Corning Inc., Corning, N.Y.) by microdilution. Tizoxanide TIZ (deacetylated form of NTZ), denitro-NTZ (TIZ without 5-nitro group) and amoxanide AMIX (TIZ-ethylamine) were also tested. Bacteria were grown overnight and suspended in fresh TSB to an OD600 of 0.01 and 100 μl were dispensed into wells with the first well containing 200 μA NTZ and other antibiotics (DMSO control) were added to well one and serially diluted from 32 μg/ml. All compounds were tested in triplicate and plates were read visually or with a plate reader (Molecular Devices) at 8, 12 and at 24 h. MIC was determined as the first well in which no visible bacterial growth was noted relative to controls. Drug effects on aerobic growth were determined in 125 ml flasks containing 25 ml of TSB medium and following inoculation (detailed above), flasks were on a gyrorotary shaker (200 rpm) at 37° C. Final concentrations of NTZ were 0, 10 and 25 μg/ml and samples were removed at hourly intervals and absorbance determined at 600 nm.

[4] = tested on: EAEC strains 042 and 17-2; assay: Growth and MIC of E. coli / EAEC strains in LB and MinA-G medium; format: cell-based; settings: Escherichia coli; for MIC: static
Experimental: EAEC strains were grown overnight in MinA-G medium at 37° C. with shaking and used to inoculate fresh MinA-G medium containing a range of NTZ concentrations (0, 5, 10, 15, 20, and 25 μg/ml) to a starting OD600 of 0.1. Growth was recorded as the absorbance at 600 nm at 30-minute intervals over a period of eight hours. […] Motility was assessed in LB soft agar (0.3% agar) containing 0 to 25 μg/ml of NTZ. The diameter of outward spreading was measured daily and inhibition computed as percent of control.

## CC(=O)Oc1ccccc1C(=O)Nc1ncc([N+](=O)[O-])s1 [Nitazoxanide, 2-(acetyloxy)-N-(5-nitro-2-thiazolyl)benzamide, reference compound]
S. epidermidis biofilm
  MIC (μM) S. epidermidis Biofilm: 32.5 µM (≈ 9.99 µg/mL)
S. epidermidis biofilm; 2-amino-3,5-dinitrothiophene analogues table
  MIC S. epidermidis Biofilm: 32.5 µM (≈ 9.99 µg/mL)
S. epidermidis biofilm; Furan analogues table
  MIC S. epidermidis Biofilm: 32.5 µM (≈ 9.99 µg/mL)
S. epidermidis biofilm; Thiophene analogues table
  MIC S. epidermidis Biofilm: 32.5 µM (≈ 9.99 µg/mL)
[1]
  Fimbrial filaments from vortexed whole cells: nearly absent
[2]
  HA (sheep erythrocytes), bacterial OD660 0.5: −
  HA (sheep erythrocytes), bacterial OD660 1.0: −
[3]
  MIC: 8 to 16 µg/mL (≈ 26 to 52.1 µM)
[4]; 042AND172, read-out: Concentration for 50% inhibition of aerobic growth, EAEC 17-2, MinA-G, estimated
  IC50: 20 to 25 µg/mL
[4]; 042AND172, read-out: Concentration for 50% inhibition of aerobic growth, EAEC 042, MinA-G, estimated
  IC50: 15 to 20 µg/mL
[4]; 042AND172, E. coli strains, rich LB medium, read-out: MIC in LB medium
  MIC: > 64 µg/mL
[4]; 042AND172, EAEC strains, static conditions
  MIC50: ~20 µg/mL
[4]; 042AND172, minimal medium with glucose, read-out: MIC in MinA-G medium
  MIC: ~32 µg/mL
